Reference: patent publication US9102678B2, “Compounds and methods for inhibiting mitotic progression” (Millennium Pharmaceuticals, Inc., priority 2004, dated 2015)

Each compound was assayed against T1, recombinant murine Aurora A enzyme (Mus musculus, UniProt P97477) (assay: Aurora A DELFIA Kinase Assay). Settings: mouse Aurora A, 250 μM ATP; threshold less than or equal to 100 nM; read-out: IC50.
T1 construct: hexahistidine (His6) (N); made in house; host or cells: insect cells, baculovirus (Bac-to-Bac, Invitrogen)
T1 sequence (P97477 whole entry): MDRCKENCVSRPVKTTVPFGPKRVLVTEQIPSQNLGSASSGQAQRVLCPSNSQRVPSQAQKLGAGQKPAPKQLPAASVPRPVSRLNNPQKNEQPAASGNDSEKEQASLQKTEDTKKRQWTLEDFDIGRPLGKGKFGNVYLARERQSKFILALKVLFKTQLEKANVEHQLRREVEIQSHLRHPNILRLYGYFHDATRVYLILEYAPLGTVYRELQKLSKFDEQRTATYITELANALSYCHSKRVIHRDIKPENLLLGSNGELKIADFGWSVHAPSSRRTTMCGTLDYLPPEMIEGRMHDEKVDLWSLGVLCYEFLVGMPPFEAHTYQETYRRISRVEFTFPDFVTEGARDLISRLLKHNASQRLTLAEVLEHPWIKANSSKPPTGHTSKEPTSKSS
Type: biochemical
Description: Recombinant mouse Aurora A with an amino-terminus hexahistidine tag (His-Aurora A) was expressed using a standard baculovirus vector and insect cell expression system (Bac-to-Bac®, Invitrogen).
Soluble, recombinant mouse Aurora A was purified from insect cells using Ni-NTA agarose (Qiagen) as described by the manufacturer and further purified over an S75 size exclusion column (Amersham Pharmacia Biotech).
Aurora A DELFIA® Kinase Assay
The enzymatic reaction mixture, with and without Aurora inhibitors, was incubated for 15 minutes at room temperature before termination with 100 μL of stop buffer (1% BSA, 0.05% Surfact-AMPS-20, and 100 mM EDTA). A total of 100 μL of the enzyme reaction mixture was transferred to wells of a Neutravidin-coated 96-well plate (Pierce) and incubated at room temperature for 30 minutes. The wells were washed with wash buffer (25 mM Tris, 150 mM sodium chloride, and 0.1% Tween 20) and incubated for 1 hour with 100 μL of antibody reaction mixture containing 1% BSA, 0.05% Surfact-AMPS-20, anti-phospho-PKA rabbit polyclonal antibody (1:2000, New England Biolabs), and europium labeled anti-rabbit IgG (1:2000, Perkin Elmer). The wells were washed and then the bound europium was liberated using 100 μL of Enhancement Solution (Perkin Elmer). Quantification of europium was done using a Wallac™ EnVision (Perkin Elmer).

Structure (SMILES)	IC50
CNCCN(C)C(=O)c1ccc(Nc2ncc3c(n2)-c2ccc(Cl)cc2C(c2ccccc2F)=NC3)cc1 [Compound I-3, 4-[9-Chloro-7-(2-fluoro-phenyl)-5H-benzo[c]pyrimido[4,5-e]azepin-2-ylamino]-N-methyl-N-(2-methylamino-ethyl)-benzamide]	≤ 100 nM
CC1CN(C(=O)c2csc(Nc3ncc4c(n3)-c3ccc(Cl)cc3C(c3c(F)cccc3F)=NC4)n2)CC(C)N1 (centres unmarked) [Compound I-362, 9-chloro-7-(2,6-difluorophenyl)-N-{4-[(3,5-dimethylpiperazin-1-yl)carbonyl]-1,3-thiazol-2-yl}-5H-pyrimido[5,4-d][2]benzazepin-2-amine]	≤ 100 nM
CNC1CCN(C(=O)c2ccc(Nc3ncc4c(n3)-c3ccc(Cl)cc3C(c3ccccc3F)=NC4)cc2)C1 (centres unmarked) [Compound I-102, {4-[9-Chloro-7-(2-fluoro-phenyl)-5H-benzo[c]pyrimido[4,5-e]azepin-2-ylamino]-phenyl}-(3-methylamino-pyrrolidin-1-yl)-methanone]	≤ 100 nM
NC1CN(C(=O)c2ccc(Nc3ncc4c(n3)-c3ccc(Cl)cc3C(c3c(F)cccc3F)=NC4)cc2)C1 [Compound I-278, N-{4-[(3-aminoazetidin-1-yl)carbonyl]phenyl}-9-chloro-7-(2,6-difluorophenyl)-5H-pyrimido[5,4-d][2]benzazepin-2-amine]	≤ 100 nM
COc1cccc(F)c1C1=NCc2cnc(Nc3ccc(C(=O)N4CCNCC4)cc3)nc2-c2ccc(Cl)cc21 [Compound I-243, 9-chloro-7-(2-fluoro-6-methoxyphenyl)-N-[4-(piperazin-1-ylcarbonyl)phenyl]-5H-pyrimido[5,4-d][2]benzazepin-2-amine]	≤ 100 nM
O=S(=O)(O)c1ccc(Nc2ncc3c(n2)-c2ccc(Cl)cc2C(c2ccccc2F)=NC3)cc1 [Compound I-67, 4-[9-Chloro-7-(2-fluoro-phenyl)-5H-benzo[c]pyrimido[4,5-e]azepin-2-ylamino]-benzenesulfonic acid]	≤ 100 nM
CNC1CN(C(=O)c2ccc(Nc3ncc4c(n3)-c3ccc(Cl)cc3C(c3ccccc3C(F)(F)F)=NC4)cc2)C1 [Compound I-297, 9-chloro-N-(4-{[3-(methylamino)azetidin-1-yl]carbonyl}phenyl)-7-[2-(trifluoromethyl)phenyl]-5H-pyrimido[5,4-d][2]benzazepin-2-amine]	≤ 100 nM
CNC(=O)C1(N)CCN(C(=O)c2ccc(Nc3ncc4c(n3)-c3ccc(Cl)cc3C(c3c(F)cccc3F)=NC4)cc2)CC1 [Compound I-341, 4-amino-1-(4-{[9-chloro-7-(2,6-difluorophenyl)-5H-pyrimido[5,4-d][2]benzazepin-2-yl]amino}benzoyl)-N-methylpiperidine-4-carboxamide]	≤ 100 nM
CNC1CCN(C(=O)c2ccc(Nc3ncc4c(n3)-c3ccc(Cl)cc3C(c3ccccn3)=NC4)cc2)C1 (centres unmarked) [Compound I-315, 9-chloro-N-(4-{[3-(methylamino)pyrrolidin-1-yl]carbonyl}phenyl)-7-pyridin-2-yl-5H-pyrimido[5,4-d][2]benzazepin-2-amine]	≤ 100 nM
CNC(=O)C1CN(C(=O)c2ccc(Nc3ncc4c(n3)-c3ccc(Cl)cc3C(c3c(F)cccc3F)=NC4)cc2)CCN1 (centres unmarked) [Compound I-310, 4-(4-{[9-chloro-7-(2,6-difluorophenyl)-5H-pyrimido[5,4-d][2]benzazepin-2-yl]amino}benzoyl)-N-methylpiperazine-2-carboxamide]	≤ 100 nM
OC1CN=C(c2ccc(Nc3ncc4c(n3)-c3ccc(Cl)cc3C(c3c(F)cccc3F)=NC4)cc2)NC1 (centres unmarked) [Compound I-285, 2-(4-{[9-chloro-7-(2,6-difluorophenyl)-5H-pyrimido[5,4-d][2]benzazepin-2-yl]amino}phenyl)-1,4,5,6-tetrahydropyrimidin-5-ol]	≤ 100 nM
CCOC(=O)[C@@H](CCN)NC(=O)c1ccc(Nc2ncc3c(n2)-c2ccc(Cl)cc2C(c2c(F)cccc2F)=NC3)cc1 [Compound I-309, ethyl (2R)-4-amino-2-[(4-{[9-chloro-7-(2,6-difluorophenyl)-5H-pyrimido[5,4-d][2]benzazepin-2-yl]amino}benzoyl)amino]butanoate]	≤ 100 nM
CN(C)C1CCN(C(=N)NC(=O)c2ccc(Nc3ncc4c(n3)-c3ccc(Cl)cc3C(c3c(F)cccc3F)=NC4)cc2)CC1 [Compound I-223, 4-{[9-chloro-7-(2,6-difluorophenyl)-5H-pyrimido[5,4-d][2]benzazepin-2-yl]amino}-N-[[4-(dimethylamino)piperidin-1-yl](imino)methyl]benzamide]	≤ 100 nM
COc1cccc(F)c1C1=NCc2cnc(Nc3ccc(C(=O)N4CCC(N(C)C)CC4)cc3)nc2-c2ccc(Cl)cc21 [Compound I-186, {4-[9-Chloro-7-(2-fluoro-6-methoxy-phenyl)-5H-benzo[c]pyrimido-[4,5-e]azepin-2-ylamino]-phenyl}-(4-dimethylamino-piperidin-1-yl)-methanone]	≤ 100 nM
CNC(=O)c1ccc(Nc2ncc3c(n2)-c2ccc(Cl)cc2C(c2c(F)cccc2F)=NC3)cc1 [Compound I-334, 4-{[9-chloro-7-(2,6-difluorophenyl)-5H-pyrimido[5,4-d][2]benzazepin-2-yl]amino}-N-methylbenzamide]	≤ 100 nM
CN1CCN(C(=O)Cc2ccc(Nc3ncc4c(n3)-c3ccc(Cl)cc3C(c3ccccc3F)=NC4)cc2)CC1 [Compound I-145, 2-{4-[9-Chloro-7-(2-fluoro-phenyl)-5H-benzo[c]pyrimido[4,5-e]azepin-2-ylamino]-phenyl}-1-(4-methyl-piperazin-1-yl)-ethanone]	≤ 100 nM
COC(=O)C1CN(C(=O)c2ccc(Nc3ncc4c(n3)-c3ccc(Cl)cc3C(c3c(F)cccc3F)=NC4)cc2)CCN1 (centres unmarked) [Compound I-248, methyl 4-(4-{[9-chloro-7-(2,6-difluorophenyl)-5H-pyrimido[5,4-d][2]benzazepin-2-yl]amino}benzoyl)piperazine-2-carboxylate]	≤ 100 nM
COc1cccc(F)c1C1=NCc2cnc(Nc3ccc(C(=O)N(C)CCN)cc3)nc2-c2ccc(Cl)cc21 [Compound I-265, N-(2-aminoethyl)-4-{[9-chloro-7-(2-fluoro-6-methoxyphenyl)-5H-pyrimido[5,4-d][2]benzazepin-2-yl]amino}-N-methylbenzamide]	≤ 100 nM
O=C(NCCc1c[nH]cn1)c1ccc(Nc2ncc3c(n2)-c2ccc(Cl)cc2C(c2ccccc2F)=NC3)cc1 [Compound I-147, 4-[9-Chloro-7-(2-fluoro-phenyl)-5H-benzo[c]pyrimido[4,5-e]azepin-2-ylamino]-N-[2-(1H-imidazol-4-yl)-ethyl]-benzamide]	≤ 100 nM
CNC1CCN(C(=O)c2ccc(Nc3ncc4c(n3)-c3ccc(Cl)cc3C(c3ccccc3C(F)(F)F)=NC4)cc2)CC1 [Compound I-288, 9-chloro-N-(4-{[4-(methylamino)piperidin-1-yl]carbonyl}phenyl)-7-[2-(trifluoromethyl)phenyl]-5H-pyrimido[5,4-d][2]benzazepin-2-amine]	≤ 100 nM
CC1(C)CN=C(c2ccc(Nc3ncc4c(n3)-c3ccc(Cl)cc3C(c3c(F)cccc3F)=NC4)cc2)N1 [Compound I-270, 9-chloro-7-(2,6-difluorophenyl)-N-[4-(5,5-dimethyl-4,5-dihydro-1H-imidazol-2-yl)phenyl]-5H-pyrimido[5,4-d][2]benzazepin-2-amine]	≤ 100 nM
CN(C)CCCN(C)C(=O)c1ccc(Nc2ncc3c(n2)-c2ccc(Cl)cc2C(c2c(F)cccc2F)=NC3)cc1 [Compound I-185, 4-[9-Chloro-7-(2,6-difluoro-phenyl)-5H-benzo[c]pyrimido[4,5-e]azepin-2-ylamino]-N-(3-dimethylamino-propyl)-N-methyl-benzamide]	≤ 100 nM
CN(C)C1CN(C(=O)c2ccc(Nc3ncc4c(n3)-c3ccc(Cl)cc3C(c3c(F)cccc3F)=NC4)cc2)C1 [Compound I-180, 9-Chloro-7-(2,6-difluorophenyl)-N-(4-{[3-(dimethylamino)azetidin-1-yl]carbonyl}phenyl)-5H-pyrimido[5,4-d][2]benzazepin-2-amine]	≤ 100 nM
CCOC(=O)C1CN=C(c2ccc(Nc3ncc4c(n3)-c3ccc(Cl)cc3C(c3c(F)cccc3F)=NC4)cc2)N1 (centres unmarked) [Compound I-314, ethyl 2-(4-{[9-chloro-7-(2,6-difluorophenyl)-5H-pyrimido[5,4-d][2]benzazepin-2-yl]amino}phenyl)-4,5-dihydro-1H-imidazole-5-carboxylate]	≤ 100 nM
N=C(NC(=O)c1ccc(Nc2ncc3c(n2)-c2ccc(Cl)cc2C(c2c(F)cccc2F)=NC3)cc1)N1CCNCC1 [Compound I-224, 4-{[9-chloro-7-(2,6-difluorophenyl)-5H-pyrimido[5,4-d][2]benzazepin-2-yl]amino}-N-[imino(piperazin-1-yl)methyl]benzamide]	≤ 100 nM
COc1cccc(F)c1C1=NCc2cnc(Nc3cccc(C(=O)N(C)CCCN(C)C)c3)nc2-c2ccc(Cl)cc21 [Compound I-226, 3-{[9-chloro-7-(2-fluoro-6-methoxyphenyl)-5H-pyrimido[5,4-d][2]benzazepin-2-yl]amino}-N-[3-(dimethylamino)propyl]-N-methylbenzamide]	≤ 100 nM
